Source: US20100130457A1, “Phenothiazine Derivatives for Treatment of Asthma” (Immune Control, Inc., priority 2008, published 2010)
pIC50: −log10 of the molar value. “Also recorded” adds a separate entry of the source.

How the values were obtained:
[1] = system: BALB/c mice, Af-induced allergic airway inflammation; assay: Bronchoalveolar lavage (BAL) analysis for cell count and cytokines in the asthma model; assay type: in vivo, mouse
Procedure: Lungs from the tested animals in Example 2 were lavaged with either a small volume (1 ml) of sterile PBS or a large volume (5 ml) of sterile saline, and total and differential cell counts were performed as described previously (Haczku et al., 1999 Am. J. Respir. Crit. Care Med. 159: 1638-1643; Haczku et al., 2000 Am. J. Respir. Crit. Care Med. 161: 952-960).
With respect to the murine model of allergen induced AHR, BALB/c mice were sensitized and challenged via intranasal instillation of Aspergillus fumigatus (Af). Two hours prior to each intranasal challenge, cohorts of five mice were administered intra peritonially (i.p.) with ICI-735 (1 mg/ml), dexamethasone (10 mg/ml). Four hours after the last allergen challenge, airway function was assessed by flexivent. Differential cytokine and immune cell abundance were also accessed in BAL fluid.

[2] = Pharmacokinetics, plasma levels in mice; assay type: in vivo, mouse
Procedure: Mice were treated with either 1.0 mg/kg or 10 mg/kg of ICI-735 by way of intraperitoneal administration. The plasma levels of ICI-735 were measured at baseline and various time points following administration (FIG. 6). […] Without wishing to be bound by any particular theory, it is believed that the effectiveness of ICI-735 to treat asthma can be achieved with a low dose (e.g, 1.0 mg/kg dose).
Mice were also treated with either 2.5 mg/kg intravenously or 5 mg/kg orally of ICI-735. The plasma levels of ICI-735 were measured at baseline and various time points following administration (FIG. 7). […] It was determined that oral bioavailability was approximately 20%. Therefore, it is believed that ICI-735 administration orally at approximately 1 mg/kg/day is effective at reducing lung resistence in patients with asthma.

[3] = system: panel of leukotriene and prostanoid receptors; assay: Receptor binding panel
AdrR2 receptor = assay: Receptor binding
Nav1.5 = Nav1.5 (Homo sapiens, UniProt Q14524); assay: Effects on action potential in a mammalian cell, sodium channel block; assay type: cell-based
Sequence of Nav1.5 (Q14524 whole entry): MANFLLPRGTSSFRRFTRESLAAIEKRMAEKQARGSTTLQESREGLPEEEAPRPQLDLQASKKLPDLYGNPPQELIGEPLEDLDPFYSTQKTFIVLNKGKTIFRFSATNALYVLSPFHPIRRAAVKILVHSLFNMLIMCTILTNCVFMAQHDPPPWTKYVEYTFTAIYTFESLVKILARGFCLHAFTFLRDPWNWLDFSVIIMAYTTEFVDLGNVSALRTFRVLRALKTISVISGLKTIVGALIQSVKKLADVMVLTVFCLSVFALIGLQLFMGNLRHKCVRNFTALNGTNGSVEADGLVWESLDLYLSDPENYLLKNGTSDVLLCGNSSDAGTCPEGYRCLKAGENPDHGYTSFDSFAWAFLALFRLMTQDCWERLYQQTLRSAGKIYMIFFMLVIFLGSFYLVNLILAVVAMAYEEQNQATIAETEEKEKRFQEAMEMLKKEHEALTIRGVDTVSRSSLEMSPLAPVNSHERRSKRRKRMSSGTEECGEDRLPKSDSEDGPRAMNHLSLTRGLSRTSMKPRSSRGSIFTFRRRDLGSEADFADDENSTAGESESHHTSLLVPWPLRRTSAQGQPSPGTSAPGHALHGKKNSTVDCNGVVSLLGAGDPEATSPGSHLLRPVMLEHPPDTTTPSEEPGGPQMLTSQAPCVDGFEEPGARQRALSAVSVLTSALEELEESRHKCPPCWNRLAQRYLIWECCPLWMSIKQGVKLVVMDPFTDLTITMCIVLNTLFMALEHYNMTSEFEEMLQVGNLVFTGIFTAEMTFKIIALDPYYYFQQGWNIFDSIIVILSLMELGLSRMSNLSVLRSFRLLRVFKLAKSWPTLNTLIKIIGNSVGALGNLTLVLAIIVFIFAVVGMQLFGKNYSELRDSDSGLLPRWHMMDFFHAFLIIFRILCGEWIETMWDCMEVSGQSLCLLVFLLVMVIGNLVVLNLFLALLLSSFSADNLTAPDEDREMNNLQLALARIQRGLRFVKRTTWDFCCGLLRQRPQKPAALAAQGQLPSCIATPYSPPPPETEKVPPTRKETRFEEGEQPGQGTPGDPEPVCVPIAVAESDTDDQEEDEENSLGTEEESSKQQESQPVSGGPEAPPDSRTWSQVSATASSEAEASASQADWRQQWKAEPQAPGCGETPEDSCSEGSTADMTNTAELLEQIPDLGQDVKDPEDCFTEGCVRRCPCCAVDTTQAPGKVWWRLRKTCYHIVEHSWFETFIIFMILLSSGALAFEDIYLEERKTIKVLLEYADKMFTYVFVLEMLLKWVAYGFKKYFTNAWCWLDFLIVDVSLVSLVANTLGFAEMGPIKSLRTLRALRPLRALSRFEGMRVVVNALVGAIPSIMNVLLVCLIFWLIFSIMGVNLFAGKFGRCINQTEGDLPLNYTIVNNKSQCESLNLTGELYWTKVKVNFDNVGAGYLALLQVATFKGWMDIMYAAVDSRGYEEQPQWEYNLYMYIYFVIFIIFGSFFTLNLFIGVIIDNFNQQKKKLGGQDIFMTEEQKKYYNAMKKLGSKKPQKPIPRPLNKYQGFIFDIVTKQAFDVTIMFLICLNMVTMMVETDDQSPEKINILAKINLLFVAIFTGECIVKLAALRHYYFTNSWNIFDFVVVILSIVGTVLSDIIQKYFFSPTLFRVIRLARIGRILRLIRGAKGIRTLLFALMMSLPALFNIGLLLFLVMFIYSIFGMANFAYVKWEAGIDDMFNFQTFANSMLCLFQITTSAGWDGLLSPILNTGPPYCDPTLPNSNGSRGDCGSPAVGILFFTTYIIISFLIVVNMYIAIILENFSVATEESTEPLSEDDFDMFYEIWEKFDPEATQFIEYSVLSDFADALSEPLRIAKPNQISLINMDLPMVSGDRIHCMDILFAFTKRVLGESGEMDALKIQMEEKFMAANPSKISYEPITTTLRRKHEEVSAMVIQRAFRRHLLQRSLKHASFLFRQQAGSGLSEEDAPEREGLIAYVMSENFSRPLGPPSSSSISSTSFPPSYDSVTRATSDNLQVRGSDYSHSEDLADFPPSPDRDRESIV
Excerpt: Voltage-gated sodium channels are responsible for the initial phase of the action potential, which is a wave of electrical depolarisation usually initiated at the soma of the neuron and propagated along the nerve axon to the terminals. At the terminals, the action potential triggers the influx of calcium and the release of neurotransmitter. The voltage-gated sodium channel family is made up of four brain specific subtypes, Nav1.1, 1.2, 1.3 and 1.6; as well as Nav1.4, which is found on skeletal muscle; Nav1.5, which is found on cardiac muscle; and Nav1.7, 1.8, 1.9, are found predominantly on sensory neurons.
The effects of ICI-735 on action potential in a mammalian cell was tested. Briefly, it was observed that ICI-735 was able to block Nav1.5.

RPMI 8226 = assay: Inhibition of proliferation of RPMI 8226 cells; assay type: cell-based, human; details: RPMI cells in vitro
Excerpt: The next set of experiments was designed to assess compounds that have low levels of brain penetration for the ability of the test compounds to inhibit cellular proliferation. An exemplary in vitro assay is to screen for the ability of the test compounds to inhibit proliferation of the B-cell neoplastic cell line RPMI 8226 (a plasmacytoma derived from a multiple myeloma patient (Matsuoka, et al., 1967, Proc. Soc. Exp. Biol. Med. 125: 1246-1250). However other cell line can be used such as, U266 (established from an IgE-secreting myeloma patient (Nilsson, et al., 1970, Clin. Exp. Immunol., 7: 477-489) and ARH77 (an EBV transformed plasma cell leukemia (Burk, et al., 1978, Cancer Res. 38: 2508-2513).
FIG. 1 is a graph depicting the effects on the test compounds on RPMI cell viability.

muscarinic receptor M3 [4] = molecular target: T1, muscarinic receptor M3 (Homo sapiens, UniProt P20309); assay: In vitro functional antagonism; assay type: biochemical
T1 sequence (P20309 whole entry): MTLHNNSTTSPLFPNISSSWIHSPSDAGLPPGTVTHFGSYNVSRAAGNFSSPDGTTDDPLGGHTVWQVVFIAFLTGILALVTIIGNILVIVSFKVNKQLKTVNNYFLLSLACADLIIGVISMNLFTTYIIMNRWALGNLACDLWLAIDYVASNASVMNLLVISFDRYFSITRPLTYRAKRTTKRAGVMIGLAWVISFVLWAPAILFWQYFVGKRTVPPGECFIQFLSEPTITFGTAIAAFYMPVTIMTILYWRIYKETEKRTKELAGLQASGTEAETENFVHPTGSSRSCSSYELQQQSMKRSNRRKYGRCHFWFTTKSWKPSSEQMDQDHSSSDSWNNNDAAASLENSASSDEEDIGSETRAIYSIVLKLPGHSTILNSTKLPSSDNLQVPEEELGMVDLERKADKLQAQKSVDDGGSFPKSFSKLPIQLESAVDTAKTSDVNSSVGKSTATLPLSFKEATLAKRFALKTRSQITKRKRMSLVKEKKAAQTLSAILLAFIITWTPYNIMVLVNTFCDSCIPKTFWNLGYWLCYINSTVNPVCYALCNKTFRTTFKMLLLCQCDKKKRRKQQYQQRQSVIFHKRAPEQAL

muscarinic receptor M3 [5] = molecular target: T1, muscarinic receptor M3; assay: Receptor binding
human small airway = assay: Human precision-cut lung slices (PCLS), small airway contraction; details: for CCh-induced bronchoconstriction after pretreatment of lung slices: C-027 10^−5 M, formoterol 0.3 nM
Procedure: Human precision-cut lung slices (PCLS) permit evaluation of pharmacological responses of novel drug candidates applied directly to their target tissue.
Human precision-cut lung slices (PCLS, 250 μm thick) containing a small airway were contracted to carbachol, histamine and passively sensitization to induce airway closure±pre-incubation with ICI-735 (10 μM; 2 hours); FIG. 13. For example, human lung slices containing a small airway were incubated overnight with either negative control IgG (4 μg/mL) or positive control IgE (4 μg/mL). The slices were tested as follows: 1) IgG+anti-IgE; 2) IgE+anti-IgE; 3) IgE+Dexamethasone (1 μM)+anti-IgE; and 4) IgE+ICI-735 (10 μM) +anti-IgE. Dexamethasone and ICI-735 were pre-incubated 2 hours prior to anti-IgE; anti-IgE is used to crosslink antibodies and induce mast cell degranulation, which is believed to release histamine and cause airway contract. […]
Human lung tissue contains multiple cell types, including mast cells, that localize in the region of airway smooth muscle, and that increase in number in individuals with asthma. Cross-linking of Fcε;R1 receptors on surfaces of mast cells leads to release of granules that contain smooth muscle contractile agonists, including histamine and leukotrienes.
To test C-027 as a blocker of histamine-induced bronchoconstriction, lung slices were incubated for 2 hours with C-027, and small airway contraction was evaluated after addition of increasing concentrations of histamine.

Compound: NCC(=O)NCCN1CCN(CCCN2c3ccccc3Sc3ccc(C(F)(F)F)cc32)CC1 [ICI-735]
- cytokine production in BAL ([1]; Af-sensitized mice): little effect; also recorded: no significant effects
- total number of cells / immune cell infiltration in BAL ([1]; asthmatic animals, treated vs untreated): not a significant difference; also recorded: little effect; also recorded: no significant effects
- plasma levels after oral 5 mg/kg dose versus intravenous 2.5 mg/kg dose [2]: comparable
- plasma levels after 1.0 mg/kg dose versus 10 mg/kg dose ([2]; intraperitoneal): comparable
- bioavailability ([2]; mouse, plasma, oral, 5 mg/kg orally vs 2.5 mg/kg intravenously): ~20%
- binding to a panel of leukotriene and prostanoid receptors [3]: does not bind
- binding to AdrR2 receptor (AdrR2 receptor): does not bind; also recorded: weak or undetectable
- pIC50 (Nav1.5): 5.08
- block of Nav1.5 (Nav1.5): able to block
- ability to inhibit proliferation of RPMI cells (RPMI 8226): did not inhibit proliferation of RPMI cells in vitro as well as some other compounds; also recorded: effective, but not as effective
- in vitro functional antagonism for muscarinic receptor M3 (muscarinic receptor M3 [4]): weak in vitro functional antagonism; also recorded: weak or undetectable
- binding to muscarinic receptor M3 (muscarinic receptor M3 [5]): weak binding; also recorded: weak or undetectable
- histamine response at the highest concentration tested (human small airway; 10 μM): does not completely prevent
- histamine-induced contraction / bronchoconstriction (human small airway; 2 hours pre-incubation, increasing concentrations of histamine): antagonize; also recorded: blocks; also recorded: prevented
- CCh-induced bronchoconstriction after pretreatment of lung slices (human small airway): antagonize; also recorded: prevents and reverses bronchoconstriction
- CCh-induced bronchoconstriction after pretreatment of lung slices (human small airway; listed as C-027): blocks
- airway contraction to IgE/anti-IgE (passive sensitization, mast cell degranulation) (human small airway; ICI-735 10 μM, dexamethasone 1 μM, pre-incubated 2 hours): antagonize; also recorded: attenuation; also recorded: blocks bronchoconstriction
- IL-13-induced airway hyper-responsiveness to CCh (human small airway; IL-13 50 ng/mL overnight, compound one hour prior): diminishes
- relaxation of maximally contracted airway smooth muscle (human small airway; in the presence of 30 μM CCh, isoproterenol 10 μM): induces relaxation
